The structures appear in SMILES notation.

Assay type in all cases: in vivo
One experiment relates to Leptosphaeria nodorum. The experiment in a line: Glume blotch of wheat (Leptosphaeria nodorum--LEPTNO). The following applies: wheat (cultivar Monon), 100 ppm spray to run off, inoculated after 24 hours; for pest or weed control at 100 ppm: Parastagonospora nodorum, 1DP, read-out: control of plant disease, LEPTNO 1DP. How it is done: (§1) Compound Formulation: Compound formulation was accomplished by dissolving technical materials in acetone, with serial dilutions then made in acetone to obtain desired rates. Final treatment volumes were obtained by adding nine volumes 0.05% aqueous Tween-20 or Triton X-100, depending upon the pathogen.
Glume blotch of wheat (Leptosphaeria nodorum--LEPTNO): Wheat (cultivar Monon) was grown from seed in a soilless peat-based potting mixture (Metromix) until the seedlings were 1-2 leaf (BBCH 12). These plants were then sprayed to run off with the test compound at a rate of 100 ppm. After 24 hours the test plants were inoculated with an aqueous spore suspension of Leptosphaeria nodorum. The plants were then transferred to the greenhouse until disease developed on the untreated control plants.
(§2) the following table presents the activity of typical compounds of the present invention when evaluated in these experiments. The effectiveness of the test compounds in controlling disease was rated using the following scale: […]

In another experiment the test system is Phytophthora infestans. The experiment in a line: whole plant or invertebrate. The following applies: for pest or weed control at 100 ppm: Phytophthora infestans, 24 h, read-out: control of plant disease, PHYTIN 1DP.
For another experiment, the system named is Puccinia recondita. Description: Brown rust (Puccinia recondita--PUCCRT). The following applies: wheat (cultivar Monon), 100 ppm spray to run off, inoculated after 24 hours; for pest or weed control at 100 ppm: Puccinia recondita, 1DP, read-out: control of plant disease, PUCCRT 1DP. How it is done: as §1
Brown rust (Puccinia recondita--PUCCRT): Wheat (cultivar Monon) was grown from seed in a soilless peat-based potting mixture (Metromix) until the seedlings were […]). These plants were then sprayed to run off with the test compound at a rate of 100 ppm. After 24 hours the test plants were inoculated with an aqueous spore suspension of Puccinia recondita. The plants were then transferred to the greenhouse until disease developed on the untreated control plants.
as §2

The test system of a further experiment is Erysiphe graminis. Description: Powdery Mildew of Wheat (Erysiphe graminis--ERYSGT). The following applies: wheat (cultivar Monon), 100 ppm spray to run off, inoculated after 24 hours; for pest or weed control at 100 ppm: Blumeria graminis, 1DP, read-out: control of plant disease, ERYSGT 1DP. As to the method: as §1
Powdery Mildew of Wheat (Erysiphe graminis--ERYSGT): Wheat (cultivar Monon) was grown in a soilless peat-based potting mixture (Metromix) until the seedlings were 1-2 leaf (BBCH 12). These plants were then sprayed to run off with the test compound at a rate of 100 ppm. After 24 hours the test plants were inoculated with Erysiphe graminis by dusting spores from stock plants onto the test plants. The plants were then transferred to the greenhouse until disease developed on the untreated control plants.
as §2

For the compound `CNC(=O)C(=NOC)c1ccccc1COc1ncc(-c2nnc(C3CC3)o2)cc1Cl` [Example 1, Benzeneacetamide, 2-[[[3-chloro-5-(5-cyclopropyl-1,3,4-oxadiazol-2-yl)-2-pyridinyl]oxy]methyl]-α-(methoxyimino)-N-methyl-], the pest or weed control at 100 ppm in the experiment on Leptosphaeria nodorum lay within 0 to 24%; with Phytophthora infestans, 75 to 100%; in the experiment with Puccinia recondita, 75 to 100%; with Erysiphe graminis it was 0 to 24%.
For `CNC(=O)C(=NOC)c1ccccc1COc1ncc(-c2nnc(-c3ccccc3)o2)cc1Cl` [Example 2], the pest or weed control at 100 ppm fell in the range of 75 to 100% with Leptosphaeria nodorum, 75 to 100% in the experiment with Phytophthora infestans, 75 to 100% in the experiment with Puccinia recondita and 25 to 74% in the experiment with Erysiphe graminis.
Consider `CNC(=O)C(=NOC)c1ccccc1COc1ncc(-c2nnc(C)o2)cc1Cl` [Example 3], for which the pest or weed control at 100 ppm with Leptosphaeria nodorum, in the experiment with Phytophthora infestans, in the experiment on Puccinia recondita and in the experiment on Erysiphe graminis was 75 to 100% each time.
`CNC(=O)C(=NOC)c1ccccc1COc1ncc(-c2nnc(C(C)(C)C)o2)cc1Cl` [Example 4]: the pest or weed control at 100 ppm fell in the range of 75 to 100% in the experiment on Leptosphaeria nodorum, 0 to 24% in the experiment on Phytophthora infestans, 75 to 100% in the experiment with Puccinia recondita and 75 to 100% in the experiment on Erysiphe graminis.
In the case of `CCc1nnc(-c2cnc(OCc3ccccc3C(=NOC)C(=O)NC)c(Cl)c2)o1` [Example 5], the pest or weed control at 100 ppm in the experiment with Leptosphaeria nodorum, in the experiment with Phytophthora infestans, with Puccinia recondita and in the experiment on Erysiphe graminis was 75 to 100% each time.
As to `CNC(=O)C(=NOC)c1ccccc1COc1ncc(-c2noc(C(C)(C)C)n2)cc1Cl` [Example 6, Benzeneacetamide, 2-[[[3-chloro-5-(5-t-butyl-1,2,4-oxadiazol-3-yl)-2-pyridinyl]oxy]methyl]-α-(methoxyimino)-N-methyl-], the pest or weed control at 100 ppm in the experiment with Leptosphaeria nodorum, with Phytophthora infestans, in the experiment on Puccinia recondita and in the experiment on Erysiphe graminis was 75 to 100% each time.
Regarding `CNC(=O)C(=NOC)c1ccccc1COc1ncc(-c2noc(-c3ccccc3)n2)cc1Cl` [Example 7], the pest or weed control at 100 ppm in the experiment on Leptosphaeria nodorum, with Phytophthora infestans, with Puccinia recondita and in the experiment on Erysiphe graminis was 75 to 100% throughout.
For the compound `CNC(=O)C(=NOC)c1ccccc1COc1ncc(-c2noc(C)n2)cc1Cl` [Example 8], the pest or weed control at 100 ppm in the experiment on Leptosphaeria nodorum fell in the range of 75 to 100%; with Phytophthora infestans, 0 to 24%; with Puccinia recondita, 75 to 100%; with Erysiphe graminis it was 75 to 100%.
With `CNC(=O)C(=NOC)c1ccccc1COc1ccc(-c2noc(C(C)(C)C)n2)cn1` [Example 9], the pest or weed control at 100 ppm lay in the range of 75 to 100% with Leptosphaeria nodorum, 0 to 24% with Phytophthora infestans, 75 to 100% in the experiment on Puccinia recondita and 75 to 100% in the experiment on Erysiphe graminis.
Consider `CNC(=O)C(=NOC)c1ccccc1COc1ccc(-c2noc(C)n2)cn1` [Example 10], for which the pest or weed control at 100 ppm in the experiment on Leptosphaeria nodorum fell in the range of 75 to 100%; with Phytophthora infestans it was 0 to 24%; in the experiment on Puccinia recondita, 75 to 100%; in the experiment with Erysiphe graminis, 75 to 100%.
With `CNC(=O)C(=NOC)c1ccccc1COc1ncc(-c2noc(C(F)(F)F)n2)cc1Cl` [Example 11], the pest or weed control at 100 ppm fell in the range of 75 to 100% with Leptosphaeria nodorum, 0 to 24% in the experiment on Phytophthora infestans, 75 to 100% in the experiment with Puccinia recondita and 75 to 100% with Erysiphe graminis.
On to `CNC(=O)C(=NOC)c1ccccc1COc1ccc(-c2noc(-c3ccccc3)n2)cn1` [Example 12], for which the pest or weed control at 100 ppm in the experiment with Leptosphaeria nodorum, in the experiment on Phytophthora infestans, in the experiment with Puccinia recondita and in the experiment on Erysiphe graminis was 75 to 100% in each case.
For `CNC(=O)C(=NOC)c1ccccc1COc1ncc(-c2noc(C3CCCC3)n2)cc1Cl` [Example 13], the pest or weed control at 100 ppm in the experiment with Leptosphaeria nodorum was in the range of 75 to 100%; with Phytophthora infestans it was 0 to 24%; in the experiment with Puccinia recondita, 75 to 100%; in the experiment with Erysiphe graminis, 75 to 100%.
For the compound `CCCCC(CC)c1nc(-c2cnc(OCc3ccccc3C(=NOC)C(=O)NC)c(Cl)c2)no1` (centres unmarked) [Example 14], the pest or weed control at 100 ppm lay within 75 to 100% in the experiment on Leptosphaeria nodorum, 0 to 24% with Phytophthora infestans, 75 to 100% in the experiment with Puccinia recondita and 75 to 100% with Erysiphe graminis.
With `CNC(=O)C(=NOC)c1ccccc1COc1ncc(-c2noc(C34CC5CC(CC(C5)C3)C4)n2)cc1Cl` [Example 15], the pest or weed control at 100 ppm in the experiment on Leptosphaeria nodorum lay in the range of 0 to 24%; in the experiment on Phytophthora infestans, 75 to 100%; with Puccinia recondita it was 75 to 100%; with Erysiphe graminis it was 75 to 100%.
Regarding `CNC(=O)C(=NOC)c1ccccc1COc1ccc(-c2noc(C(F)(F)F)n2)cn1` [Example 16], the pest or weed control at 100 ppm in the experiment on Leptosphaeria nodorum fell in the range of 0 to 24%; with Phytophthora infestans, 0 to 24%; in the experiment on Puccinia recondita, 75 to 100%; in the experiment with Erysiphe graminis, 75 to 100%.
With `CNC(=O)C(=NOC)c1ccccc1COc1ncc(-c2noc(CC(C)(C)C)n2)cc1Cl` [Example 17], the pest or weed control at 100 ppm was in the range of 75 to 100% with Leptosphaeria nodorum, 0 to 24% with Phytophthora infestans, 75 to 100% in the experiment with Puccinia recondita and 75 to 100% in the experiment with Erysiphe graminis.
For `CNC(=O)C(=NOC)c1ccccc1COc1ncc(-c2noc(-c3ccco3)n2)cc1Cl` [Example 18], the pest or weed control at 100 ppm was in the range of 75 to 100% in the experiment with Leptosphaeria nodorum, 75 to 100% in the experiment on Phytophthora infestans, 75 to 100% with Puccinia recondita and 25 to 74% in the experiment with Erysiphe graminis.
With `O=C(NNC(=O)C1CC1)c1cnc(Cl)c(Cl)c1` [Example 19], in the experiment on Leptosphaeria nodorum, the “control of plant disease, LEPTNO 1DP” value is “++ (75-100% control of plant disease)”. Further, the “control of plant disease, PHYTIN 1DP” value in the experiment with Phytophthora infestans (tomatoes (cultivar Rutgers), 100 ppm spray to run off, inoculated after 24 hours, 1DP) is on record as “- (0-24% control of plant disease)”. Further, the “control of plant disease, PUCCRT 1DP” value in the experiment on Puccinia recondita is “++ (75-100% control of plant disease)”. For the same compound, the “control of plant disease, ERYSGT 1DP” value in the experiment on Erysiphe graminis is listed as “++ (75-100% control of plant disease)”.
Turning to `CNC(=O)C(=NOC)c1ccccc1COc1ccc(-c2cc(-c3ccccc3)on2)cn1` [Example 44], the pest or weed control at 100 ppm in the experiment on Phytophthora infestans lay in the range of 0 to 24%.
On the same count and under the same terms, then `CNC(=O)C(=NOC)c1ccccc1COc1ccc(-c2cc(C)on2)cn1` [Example 45], with 25 to 74%.
With `CNC(=O)C(=NOC)c1ccccc1COc1ncc(-c2nc(COc3ccccc3)no2)cc1Cl` [Example 57], the values for the pest or weed control at 100 ppm in the experiment on Leptosphaeria nodorum, in the experiment with Puccinia recondita and in the experiment with Erysiphe graminis were 25 to 74%, 75 to 100% and 75 to 100%, respectively.
As for `CNC(=O)C(=NOC)c1ccccc1COc1ncc(-c2nc(CSc3ccccc3)no2)cc1Cl` [Example 58], the pest or weed control at 100 ppm in the experiment with Leptosphaeria nodorum, in the experiment on Puccinia recondita and in the experiment on Erysiphe graminis was 75 to 100% each time.
In the case of `CNC(=O)C(=NOC)c1ccccc1COc1ncc(-c2nc(C(C)C)no2)cc1Cl` [Example 59], the pest or weed control at 100 ppm in the experiment on Leptosphaeria nodorum, in the experiment with Puccinia recondita and in the experiment with Erysiphe graminis was 75 to 100% throughout.
Turning to `CNC(=O)C(=NOC)c1ccccc1COc1ncc(-c2nc(C(C)(C)C)no2)cc1C` [Example 60], the pest or weed control at 100 ppm in the experiment on Leptosphaeria nodorum, in the experiment on Puccinia recondita and in the experiment with Erysiphe graminis was 75 to 100% throughout.
Turning to `CNC(=O)C(=NOC)c1ccccc1COc1ncc(-c2nc(COC)no2)cc1Cl` [Example 61], the values for the pest or weed control at 100 ppm in the experiment with Leptosphaeria nodorum, in the experiment on Puccinia recondita and in the experiment with Erysiphe graminis were 0 to 24%, 75 to 100% and 75 to 100%, respectively.
As for `CNC(=O)C(=NOC)c1ccccc1COc1ncc(-c2nc(CSC)no2)cc1Cl` [Example 62], the pest or weed control at 100 ppm with Leptosphaeria nodorum, in the experiment on Puccinia recondita and with Erysiphe graminis was 75 to 100% in each case.
Turning to `CCc1noc(-c2ccc(OCc3ccccc3C(=NOC)C(=O)NC)nc2)n1` [Example 63], the results for the pest or weed control at 100 ppm with Leptosphaeria nodorum, with Puccinia recondita and with Erysiphe graminis were 25 to 74%, 75 to 100% and 75 to 100%, respectively.
`CNC(=O)C(=NOC)c1ccccc1COc1ncc(-c2cc(C)no2)cc1Cl` [Example 79]: the pest or weed control at 100 ppm with Phytophthora infestans lay within 0 to 24%.
Still for that read-out and setting: as for `CCc1cc(-c2ccc(OCc3ccccc3C(=NOC)C(=O)NC)nc2)on1` [Example 80], the figure is 0 to 24%.

Values taken from patent US6133294A (priority 1999, dated 2000).
